Measured values published in patent US11026918B2, “Method of preventing or treating a pulmonary disease or condition” (THE BOARD OF TRUSTEES OF THE UNIVERSITY OF ILLINOIS, priority 2014, dated 2021).
Entries after “also recorded” stand apart in the source; their conditions may differ.

Key:
[1] = target: sphingosine kinase-1/SphK1 (Homo sapiens, UniProt Q9NYA1); conditions: cited from earlier work
[2] = system: newborn mice exposed to hyperoxia (75%); assay: Hyperoxia-induced lung injury in newborn mice; assay type: in vivo; conditions: PF-543 20 mg/kg/day
Excerpt: Therefore, PF-543 protected the lungs of the newborn mice from oxygen injury.

[3] = system: bleomycin-challenged C57BL/6J mice; assay: Bleomycin-induced pulmonary fibrosis in mice treated with PF-543; assay type: in vivo; conditions: PF-543 i.p. 5 mg/kg twice per week
Protocol: In Vivo Studies. In this analysis, 8 week-old, wild-type, C57BL/6J mice were treated with 1.5 U/kg bleomycin.

[4] = cited from earlier work
[5] = system: adult mice exposed to oxygen (75%); assay: Hyperoxia-induced lung injury in adult mice; assay type: in vivo; conditions: 5 mg/kg/d PF-543 x 2 days prior to oxygen (75%)
[6] = system: S1P receptors; conditions: cited from earlier work
[7] = system: human lung fibroblasts; assay: TGF-β-mediated differentiation of human lung fibroblasts, PF-543; assay type: cell-based
Excerpt: TGF-β-induced fibroblast differentiation was characterized to analyze the expression of fibronectin and α-SMA. […] Additionally, compared with the control mouse lung fibroblast (from wild-type mice), TGF-β-induced fibroblast differentiation and expression of YAP1 were dramatically lower in the lung fibroblast isolated from SphK1^−/− mice. Accordingly, selective inhibition of SphK1 is useful in the prevention and treatment of bleomycin-induced pulmonary fibrosis.

[8] = system: HLMVECs; assay: Hyperoxia-induced S1P generation, p47phox activation and ROS generation in HLMVECs, PF-543; assay type: cell-based, human
Excerpt: HLMVECs were transfected with p47-roGFP prior to exposure to hyperoxia.

[9] = system: human lung fibroblasts; conditions: SKI-II; cited from earlier work
[10] = system: human lung microvascular endothelial cells (HLMVECs); conditions: SKI-II, cited from earlier work
[11] = system: rats exposed to hypoxia; conditions: SKI-II 10 mg/kg intraperitoneally, once every other day for 3.5 weeks; vs vehicle; cited from earlier work
[12] = system: bleomycin-challenged mice; conditions: SKI-II eight days post-bleomycin challenge; cited from earlier work
[13] = system: irradiated C57B1/6 mice; conditions: 20 Gy thoracic irradiation, cited from earlier work
[14] = PF-543 1-5 μM, 1 hour pretreatment, TGF-β 5 ng/ml, 48 hours
[15] = 0.375 mg/kg myriocin p.o. 3x/week, 0.375 mg/kg

sphingosine kinase-1/SphK1, sequence (Q9NYA1 whole entry): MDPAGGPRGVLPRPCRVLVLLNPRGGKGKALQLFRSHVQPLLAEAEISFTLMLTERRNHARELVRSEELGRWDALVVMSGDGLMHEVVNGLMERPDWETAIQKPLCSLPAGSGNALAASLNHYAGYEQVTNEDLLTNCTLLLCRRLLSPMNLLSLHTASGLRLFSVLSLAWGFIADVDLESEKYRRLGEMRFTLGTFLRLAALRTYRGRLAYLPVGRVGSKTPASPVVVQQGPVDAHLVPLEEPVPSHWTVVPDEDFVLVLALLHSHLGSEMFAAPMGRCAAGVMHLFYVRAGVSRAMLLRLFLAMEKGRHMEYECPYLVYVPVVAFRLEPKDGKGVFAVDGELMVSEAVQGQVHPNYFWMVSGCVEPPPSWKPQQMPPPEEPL

CCCCCCCCCCCCc1ccc(C(=O)NC2(C(=N)N)CC2)cc1 [Compound 1]
selectivity for SphK1 over SphK2 [1]: 5 fold

CCCCCCCCCCCCc1ccc(NC(=O)C2(C(=N)N)CC2)cc1 [Compound 2]
Ki [1]: 0.3 µM
selectivity for SphK1 over SphK2 [1]: 40 fold

N=C(N)C1(C(=O)NCCCCCCCCCCOCC2CCCCC2)CC1 [Compound 4]
selectivity for SphK1 over SphK2 [1]: 470 fold

N=C(N)[C@@H]1CCCN1C(=O)c1ccc(-c2nc(-c3cccc(CCC4CCCCC4)c3)co2)cc1 [Compound 5]
selectivity for SphK1 over SphK2 [1]: 180 fold

CCCCCCCCCCCCCCC[C@@H](O)C(C)N (stereo partly shown) [Compound 55-21]
IC50 [1]: 7.1 µM
selectivity for SphK1 over SphK2 [1]: ~108 fold

Cc1cc(CS(=O)(=O)c2ccccc2)cc(OCc2ccc(CN3CCC[C@@H]3CO)cc2)c1 [PF-543, [(2R)-1-[[4-[[3-(benzenesulfonylmethyl)-5-methylphenoxy]methyl]phenyl]methyl]pyrrolidin-2-yl] methanol]
lung structure [2]: well preserved
protection against lung injury and pulmonary fibrosis ([3]; 1.5 U/kg bleomycin, day 7 to 21 post-bleomycin, 5 mg/kg): ameliorates; also recorded: partly protected
TGF-β levels in bronchoalveolar lavage (BAL) fluids ([3]; day 7 to 21 post-bleomycin): decreased
expression of α-SMA and fibronectin in lung tissues ([3]; day 7 to 21 post-bleomycin): decreased
total collagen deposition ([3]; day 7 to 21 post-bleomycin, vs bleomycin without PF-543): decreased
Ashcroft's score ([3]; day 21 to 42 post-bleomycin): decrease
collagen deposition ([3]; day 21 to 42 post-bleomycin): decrease
resolution of pulmonary fibrosis ([3]; day 21 to 42 post-bleomycin): enhanced resolution
cell permeability [4]: cell-permeable
BAL fluid total protein concentration [5]: decreases; also recorded: reduced
BAL inflammatory cell infiltrate (WBC count) [5]: decreases; also recorded: reduced
hyperoxia-induced lung injury [5]: attenuated
lung inflammatory fluid infiltration (lung histology) [5]: reduced
affinity toward S1P receptors [6]: does not exhibit any affinity
TGF-β-induced expression of fibronectin and α-SMA [7, 14]: decreased; also recorded: dramatically inhibited
TGF-β-mediated fibroblast differentiation to myofibroblasts [7, 14]: attenuated; also recorded: dramatically inhibited
TGF-β-induced expression of YAP1 ([7]; PF-543 pretreatment, TGF-β): attenuated; also recorded: dramatically inhibited
attenuation of hyperoxia-mediated [32P]S1P generation [8]: > 80%
hyperoxia-induced ROS generation [8]: attenuates; also recorded: inhibited
exogenous S1P-mediated translocation of p47phox to cell periphery / activation ([8]; exogenous S1P instead of hyperoxia): not affected; also recorded: did not affect
hyperoxia-induced aggregation and stimulation of p47phox biosensor protein (p47-roGFP) ([8]; live cell imaging, HLMVECs transfected with p47-roGFP): suppressed
hyperoxia-induced p47phox translocation to cell periphery / activation of p47phox ([8]; pre-treated with PF-543): inhibited; also recorded: attenuated

CCCCCCCCCCCCCC#CC(=O)C1COC(C)(C)N1C(=O)OC(C)(C)C (stereo not shown) [SKI 5C]
IC50 [1]: 3.3 µM

Oc1ccc(Nc2nc(-c3ccc(Cl)cc3)cs2)cc1 [SKI-II, 4-[[4-(4-chlorophenyl)-2-thiazolyl]amino]-phenol]
S1P generation and TGF-β-mediated signal transduction [9]: attenuates
ROS production under hyperoxia (DCFDA fluorescence) ([10]; 24 hours before hyperoxia (95% O2) for 3 hours): blocked
hyperoxia-induced S1P generation [10]: attenuates
development of HPH (RVSP, RVH, pulmonary vascular remodeling) [11]: prevents
bleomycin-induced mortality [12]: reduces
bleomycin-induced pulmonary fibrosis [12]: reduces

CCCCCCC(=O)CCCCCC/C=C/C[C@@H](O)[C@H](O)[C@@](N)(CO)C(=O)O [myriocin]
radiation-induced pulmonary fibrosis (onset of RIF) [13, 15]: decreases; also recorded: delays
radiation-induced pulmonary inflammation [13, 15]: decreases; also recorded: reduces
animal lifespan (survival) ([13]; 0.375 mg/kg myriocin p.o. 3x/week): increased
SphK2 mRNA levels and protein expression ([13]; myriocin): Neither parameter is affected
expression of markers of fibrogenesis (collagen, α-SMA) in the lung ([13]; myriocin): decreased
radiation-increased SphK1 mRNA levels and SphK1 protein expression ([13]; myriocin): decreased
radiation-induced increase in total SphK activity in lung tissue ([13]; myriocin): hinder; also recorded: inhibition
